In PubChem BioAssay AID1963866 (Molecular Pharmacology Branch, DTP, NCI, 2024):
Calls of active or inactive are those of the source. The calls were made as follows: active = viability on the fitted dose curve at most 10% of control; inactive = the rest.

Test system: PDC KRAS tumor spheroids with HUVEC/MSC, viability
Test: Anticancer human tumor 349418-098-R-PDC patient-derived lung adenocarcinoma cell line growth inhibition [KRAS2]
Details: for IC50: curve of first compound; for viability, T/C: stronger effect = lower value
How it was run: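 Combination screen of spheroid viability in tumor-cell co-cultures with endothelial (HUVEC) and mesenchymal stem cell stroma. Each agent was tested in half-log dilutions, topping at clinical Cmax or at 10 microM without a known Cmax.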

[1] = second compound 0.1 µM, first compound 0.0316 µM
[2] = second compound 0.1 µM, first compound 0.1 µM
[3] = second compound 0.1 µM, first compound 0.316 µM
[4] = second compound 0.1 µM, first compound 1 µM
[5] = second compound 0.1 µM, first compound 3.16 µM
[6] = second compound 0.1 µM, first compound 10 µM
[7] = second compound 0.316 µM, first compound 0.0316 µM
[8] = second compound 0.316 µM, first compound 0.1 µM
[9] = second compound 0.316 µM, first compound 0.316 µM
[10] = second compound 0.316 µM, first compound 1 µM
[11] = second compound 0.316 µM, first compound 3.16 µM
[12] = second compound 0.316 µM, first compound 10 µM
[13] = second compound 1 µM, first compound 0.0316 µM
[14] = second compound 1 µM, first compound 0.1 µM
[15] = second compound 1 µM, first compound 0.316 µM
[16] = second compound 1 µM, first compound 1 µM
[17] = second compound 1 µM, first compound 3.16 µM
[18] = second compound 1 µM, first compound 10 µM
[19] = second compound 3.16 µM, first compound 0.0316 µM
[20] = second compound 3.16 µM, first compound 0.1 µM
[21] = second compound 3.16 µM, first compound 0.316 µM
[22] = second compound 3.16 µM, first compound 1 µM
[23] = second compound 3.16 µM, first compound 3.16 µM
[24] = second compound 3.16 µM, first compound 10 µM
[25] = second compound 10 µM, first compound 0.0316 µM
[26] = second compound 10 µM, first compound 0.1 µM
[27] = second compound 10 µM, first compound 0.316 µM
[28] = second compound 10 µM, first compound 1 µM
[29] = second compound 10 µM, first compound 3.16 µM
[30] = second compound 10 µM, first compound 10 µM
[31] = second compound 0.1 µM, first compound 0.00316 µM
[32] = second compound 0.1 µM, first compound 0.01 µM
[33] = second compound 0.316 µM, first compound 0.00316 µM
[34] = second compound 0.316 µM, first compound 0.01 µM
[35] = second compound 1 µM, first compound 0.00316 µM
[36] = second compound 1 µM, first compound 0.01 µM
[37] = second compound 3.16 µM, first compound 0.00316 µM
[38] = second compound 3.16 µM, first compound 0.01 µM
[39] = second compound 10 µM, first compound 0.00316 µM
[40] = second compound 10 µM, first compound 0.01 µM
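Also: spheroids exposed to compounds for seven days before readout.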

Molecule `CC(C)NCC(C(=O)N1CCN(c2ncnc3c2C(C)CC3O)CC1)c1ccc(Cl)cc1` (stereo not given) + COc1cc2nc(C)nc(NC(C)c3cc(N)cc(C(F)(F)F)c3)c2cc1OC1CCOC1 has an IC50 (second compound 0.1 µM) of 279 nM, an IC50 (second compound 0.316 µM) of 270 nM and an IC50 (second compound 1 µM) of 178 nM. For the same molecule, the IC50 (second compound 3.16 µM) was 146 nM, the IC50 (second compound 10 µM) was under 31.6 nM and the viability, T/C [1] was 98.1%. For the same molecule, the viability, T/C [2] was 73%, the viability, T/C [3] was 49.4% and the viability, T/C [4] was 23.1%. For the same molecule, the viability, T/C [5] was 10.2%, the viability, T/C [6] was 6.37% and the viability, T/C [7] was 85.4%. For the same molecule, the viability, T/C [8] was 77%, the viability, T/C [9] was 44.8% and the viability, T/C [10] was 18.9%. The viability, T/C [11] was 7.59%, the viability, T/C [12] was 6.32% and the viability, T/C [13] was 93%. For the same molecule, the viability, T/C [14] was 66.4%, the viability, T/C [15] was 31.4% and the viability, T/C [16] was 22%. It also gave a viability, T/C [17] of 6.85%, a viability, T/C [18] of 3.87% and a viability, T/C [19] of 71.9%. For the same molecule, the viability, T/C [20] was 58.3%, the outcome [21] was “inactive” and the viability, T/C [22] was 13.9%. For the same molecule, the viability, T/C [23] was 6.58%, the viability, T/C [24] was 5.75% and the viability, T/C [25] was 26.9%. For the same molecule, the viability, T/C [26] was 20.7%, the viability, T/C [27] was 7.61% and the viability, T/C [28] was 3.94%. For the same molecule, the viability, T/C [29] was 1.89% and the viability, T/C [30] was 2.67%.
Work on `COC(=O)c1ccc2c(C(=Nc3ccc(N(C)C(=O)CN4CCN(C)CC4)cc3)c3ccccc3)c(O)[nH]c2c1` + C=CC(=O)N1CCN(c2nc(=O)n(-c3c(C)ccnc3C(C)C)c3nc(-c4c(O)cccc4F)c(F)cc23)C(C)C1 yielded an IC50 (second compound 0.1 µM) of 157 nM, an IC50 (second compound 0.316 µM) of 226 nM and an IC50 (second compound 1 µM) of 242 nM. For the same molecule, the IC50 (second compound 3.16 µM) was 106 nM, the IC50 (second compound 10 µM) was under 31.6 nM and the viability, T/C [1] was 88.1%. It also gave a viability, T/C [2] of 49.6%, a viability, T/C [3] of 47.2% and a viability, T/C [4] of 26.5%. It also gave a viability, T/C [5] of 14.8%, a viability, T/C [6] of 15.1% and a viability, T/C [7] of 94.5%. For the same molecule, the viability, T/C [8] was 63.1%, the viability, T/C [9] was 47.1% and the viability, T/C [10] was 27.9%. For the same molecule, the viability, T/C [11] was 17.2%, the viability, T/C [12] was 15.5% and the viability, T/C [13] was 107%. For the same molecule, the viability, T/C [14] was 73.2%, the viability, T/C [15] was 39.8% and the viability, T/C [16] was 30.4%. For the same molecule, the viability, T/C [17] was 18.1%, the viability, T/C [18] was 13.7% and the viability, T/C [19] was 72.4%. It also gave a viability, T/C [20] of 47.9%, a viability, T/C [21] of 35.7% and a viability, T/C [22] of 28.4%. The viability, T/C [23] was 11.6%, the viability, T/C [24] was 10.9% and the viability, T/C [25] was 40%. The viability, T/C [26] was 35.2%, the viability, T/C [27] was 31.4% and the viability, T/C [28] was 25.3%. The viability, T/C [29] was 5.38% and the viability, T/C [30] was 1.56%.
`CC(C)n1nc(-c2ccc3oc(N)nc3c2)c2c(N)ncnc21` + CC1OCC2(CCN(c3cnc(Sc4ccnc(N)c4Cl)c(N)n3)CC2)C1N gave an IC50 (second compound 0.1 µM) of 1.04 nM, an IC50 (second compound 0.316 µM) of 0.866 nM and an IC50 (second compound 1 µM) of 0.926 nM. The IC50 (second compound 3.16 µM) was 0.929 nM, the IC50 (second compound 10 µM) was 0.95 nM and the viability, T/C (second compound 0.1 µM, first compound 0.000316 µM) was 88.6%. It also gave a viability, T/C (second compound 0.1 µM, first compound 0.001 µM) of 51.3%, a viability, T/C [31] of 12.7% and a viability, T/C [32] of 7.28%. It also gave a viability, T/C [1] of 6.47%, a viability, T/C [2] of 6.12% and a viability, T/C (second compound 0.316 µM, first compound 0.000316 µM) of 84.3%. For the same molecule, the viability, T/C (second compound 0.316 µM, first compound 0.001 µM) was 45.1%, the viability, T/C [33] was 13.2% and the viability, T/C [34] was 6.85%. For the same molecule, the viability, T/C [7] was 5.49%, the viability, T/C [8] was 5.49% and the viability, T/C (second compound 1 µM, first compound 0.000316 µM) was 87%. The viability, T/C (second compound 1 µM, first compound 0.001 µM) was 47.4%, the viability, T/C [35] was 15.5% and the viability, T/C [36] was 7.37%. For the same molecule, the viability, T/C [13] was 5.67%, the viability, T/C [14] was 5.72% and the viability, T/C (second compound 3.16 µM, first compound 0.000316 µM) was 66.7%. For the same molecule, the viability, T/C (second compound 3.16 µM, first compound 0.001 µM) was 48.9%, the viability, T/C [37] was 13.8% and the viability, T/C [38] was 7.85%. For the same molecule, the viability, T/C [19] was 6.12%, the viability, T/C [20] was 5.21% and the viability, T/C (second compound 10 µM, first compound 0.000316 µM) was 64.2%. The viability, T/C (second compound 10 µM, first compound 0.001 µM) was 49.4%, the viability, T/C [39] was 15% and the viability, T/C [40] was 7.11%. It also gave a viability, T/C [25] of 5.4% and a viability, T/C [26] of 4.86%.
With `CCN1CCN(Cc2ccc(Nc3ncc(F)c(-c4cc(F)c5nc(C)n(C(C)C)c5c4)n3)nc2)CC1` + COc1cc2nc(C)nc(NC(C)c3cc(N)cc(C(F)(F)F)c3)c2cc1OC1CCOC1 the IC50 (second compound 0.1 µM) was under 3.16 nM, the IC50 (second compound 0.316 µM) was 5.01 nM and the IC50 (second compound 1 µM) was 5.63 nM. The IC50 (second compound 3.16 µM) was under 3.16 nM, the IC50 (second compound 10 µM) was under 3.16 nM and the viability, T/C [31] was 49.7%. The viability, T/C [32] was 25.8%, the viability, T/C [1] was 25.5% and the viability, T/C [2] was 20.2%. For the same molecule, the viability, T/C [3] was 14.2%, the viability, T/C [4] was 5.42% and the viability, T/C [33] was 61.8%. The viability, T/C [34] was 33%, the viability, T/C [7] was 16.6% and the viability, T/C [8] was 16.1%. It also gave a viability, T/C [9] of 13.6%, a viability, T/C [10] of 4.29% and a viability, T/C [35] of 69.3%. The viability, T/C [36] was 31.1%, the viability, T/C [13] was 14.2% and the viability, T/C [14] was 13.4%. It also gave a viability, T/C [15] of 10.5%, a viability, T/C [16] of 4.38% and a viability, T/C [37] of 40.8%. The viability, T/C [38] was 25%, the viability, T/C [19] was 14.5% and the viability, T/C [20] was 11.7%. It also gave a viability, T/C [21] of 8.46%, a viability, T/C [22] of 1.57% and a viability, T/C [39] of 11.7%. The viability, T/C [40] was 8.02%, the viability, T/C [25] was 4.11% and the viability, T/C [26] was 2.43%. It also gave a viability, T/C [27] of 0.61% and a viability, T/C [28] of 0.15%.
